Reference: patent US12180192B2, “Modulators of THR-β and methods of use thereof” (ALIGOS THERAPEUTICS, INC., priority 2019, dated 2024)

How the values were obtained:
[1] = target: T1, THR alpha (Homo sapiens, UniProt P10827); test: HEK293T THR alpha/RXR luciferase reporter assay (Assay 2); type: cell-based; conditions: Assay 2; for Emax: HEK-293T, read-out: Activity category Assay 2 THRα (Emax); for Emax / Activity category Assay 2 THRα (Emax): Table 5, THRα; for EC50: Table 4, THR-alpha, read-out: Activity category Assay 2 (EC50, THR-alpha agonist activity)
T1 construct: expressed in transfected cells; host or cells: HEK293T (ATCC CRL-3216)
T1 sequence (P10827 1-410 isoform P10827-2): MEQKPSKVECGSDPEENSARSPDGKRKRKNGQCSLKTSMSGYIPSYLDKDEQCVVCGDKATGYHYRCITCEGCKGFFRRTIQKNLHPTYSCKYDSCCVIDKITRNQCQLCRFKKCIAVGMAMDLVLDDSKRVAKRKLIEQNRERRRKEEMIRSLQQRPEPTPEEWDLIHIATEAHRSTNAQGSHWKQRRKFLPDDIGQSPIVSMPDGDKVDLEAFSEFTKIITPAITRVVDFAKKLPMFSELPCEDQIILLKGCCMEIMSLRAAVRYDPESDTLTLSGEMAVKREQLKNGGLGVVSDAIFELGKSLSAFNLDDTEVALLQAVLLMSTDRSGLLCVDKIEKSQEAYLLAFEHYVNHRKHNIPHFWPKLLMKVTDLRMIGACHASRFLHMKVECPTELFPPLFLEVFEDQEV
T1 sequence (P19793 1-462 partner): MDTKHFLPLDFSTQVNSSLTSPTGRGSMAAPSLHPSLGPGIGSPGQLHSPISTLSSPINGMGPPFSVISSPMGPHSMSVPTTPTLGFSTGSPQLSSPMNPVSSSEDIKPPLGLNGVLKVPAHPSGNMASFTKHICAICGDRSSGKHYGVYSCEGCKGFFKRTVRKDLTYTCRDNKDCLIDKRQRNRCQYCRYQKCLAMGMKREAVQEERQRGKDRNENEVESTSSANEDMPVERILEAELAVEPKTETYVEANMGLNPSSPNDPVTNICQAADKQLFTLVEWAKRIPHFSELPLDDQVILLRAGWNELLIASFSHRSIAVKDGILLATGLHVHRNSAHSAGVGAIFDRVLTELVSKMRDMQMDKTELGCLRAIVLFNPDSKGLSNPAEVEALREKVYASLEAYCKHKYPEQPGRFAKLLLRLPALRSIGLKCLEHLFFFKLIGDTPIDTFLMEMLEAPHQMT
Outline: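 Compounds tested as ten-point five-fold dilution series for 18-24 h on transiently transfected HEK293T cells carrying TRE-driven luciferase plus RXR and either THR alpha or beta expression plasmids. Read-out by One-Glo luminescence, expressed as percent agonism relative to negative and positive controls.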

[2] = target: T2, human thyroid receptor beta ligand-binding domain (LBD) (Homo sapiens, UniProt P10828); test: TR-FRET thyroid receptor beta coactivator assay (THR biochemical assay, Assay 1); conditions: for EC50: THR-beta, TR-FRET coactivator assay, read-out: Activity category Assay 1 (EC50, THR-beta agonist); for Emax / Activity category Assay 1 THRβ (Emax): Table 5, Assay 1, THRβ; for Emax: read-out: Activity category Assay 1 THRβ (Emax)
T2 construct: purchased Invitrogen
T2 sequence (P10828 217-461 limits assumed): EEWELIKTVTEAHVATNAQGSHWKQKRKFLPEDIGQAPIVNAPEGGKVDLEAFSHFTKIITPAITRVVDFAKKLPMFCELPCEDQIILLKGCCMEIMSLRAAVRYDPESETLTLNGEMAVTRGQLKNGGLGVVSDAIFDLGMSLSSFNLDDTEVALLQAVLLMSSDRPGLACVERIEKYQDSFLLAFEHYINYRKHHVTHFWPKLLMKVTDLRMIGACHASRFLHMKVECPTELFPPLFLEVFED
Outline: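 Agonist-driven coactivator recruitment measured by TR-FRET: terbium anti-GST antibody (2 nM) bound to GST-LBD of TRβ or TRα (1 nM final, stated for β), with fluorescein SRC2-2 peptide at 200 nM. Compounds at 1% DMSO. Read after 1 h, room temperature, protected from light.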

SMILES	Emax [1] [%]	EC50 [1] [nM]	EC50 [2] [nM]	Emax [2] [%]	Activity category Assay 1 THRβ (Emax) [2]	Activity category Assay 2 THRα (Emax) [1]
Nc1nn(-c2cc(Cl)c(Oc3cc(-c4ccc5ccccc5c4)c(=O)[nH]n3)c(Cl)c2)c(=O)[nH]c1=O [Compound 67, 6-amino-2-(3,5-dichloro-4-[[5-(naphthalen-2-yl)-6-oxo-1H-pyridazin-3-yl]oxy]phenyl)-4H-1,2,4-triazine-3,5-dione]	< 50	> 10000	50 to 250	< 50	–	–
CC(C)c1c[nH]c2ccc(Oc3c(Cl)cc(-n4nc(C#N)c(=O)[nH]c4=O)cc3Cl)nc12 [Compound 18]	50 to 75	1000 to 10000	< 50	< 50	–	–
CC(C)c1c[nH]c2nnc(Oc3c(Cl)cc(-n4nc(C#N)c(=O)[nH]c4=O)cc3Cl)cc12 [Compound 52, 2-[3,5-dichloro-4-([5-isopropyl-7H-pyrrolo[2,3-c]pyridazin-3-yl]oxy)phenyl]-3,5-dioxo-4H-1,2,4-triazine-6-carbonitrile]	50 to 75	> 10000	50 to 250	< 50	–	–
CC(C)c1n[nH]c2nnc(Oc3c(Cl)cc(-n4nc(C#N)c(=O)[nH]c4=O)cc3Cl)cc12 [Compound 75A, 2-(3,5-Dichloro-4-((3-isopropyl-1H-pyrazolo[3,4-c]pyridazin-5-yl)oxy)phenyl)-3,5-dioxo-2,3,4,5-tetrahydro-1,2,4-triazine-6-carbonitrile]	< 50	> 10000	< 50	50 to 75	–	–
Nc1nn(-c2cc(Cl)c(Oc3n[nH]c(=O)cc3-c3ccc4c(c3)CCCC4)c(Cl)c2)c(=O)[nH]c1=O [Compound 72-A, 6-amino-2-(3,5-dichloro-4-[[6-oxo-4-(5,6,7,8-tetrahydronaphthalen-2-yl)-1H-pyridazin-3-yl]oxy]phenyl)-4H-1,2,4-triazine-3,5-dione]	< 50	> 10000	< 50	< 50	–	–
CCC(C)c1cc(Oc2c(Cl)cc(-n3nc(N)c(=O)[nH]c3=O)cc2Cl)n[nH]c1=O (stereo not drawn) [Compound 39-A]	–	50 to 250	< 50	–	C (Emax<50%)	A (Emax≥75%)
Cc1cc(-n2nc(C#N)c(=O)[nH]c2=O)cc(C)c1Cc1ccc2[nH]cc(C(C)C)c2n1 [Compound 31, 2-[4-[(3-isopropyl-1H-pyrrolo[3,2-b]pyridin-5-yl)methyl]-3,5-dimethyl-phenyl]-3,5-dioxo-1,2,4-triazine-6-carbonitrile]	> 75	1000 to 10000	< 50	50 to 75	–	–
CC(c1cc(Oc2c(Cl)cc(-n3nc(N)c(=O)[nH]c3=O)cc2Cl)n[nH]c1=O)C1CC(F)(F)C1 (single isomer, unassigned) [Compound 61-B, 6-amino-2-[3,5-dichloro-4-([5-[1-(3,3-difluorocyclobutyl)ethyl]-6-oxo-1H-pyridazin-3-yl]oxy)phenyl]-4H-1,2,4-tri-azine-3,5-dione]	–	250 to 1000	50 to 250	–	C (Emax<50%)	C (Emax<50%)
Nc1nn(-c2cc(Cl)c(Oc3cc(-c4ccc5c(c4)CCCC5)c(=O)[nH]n3)c(Cl)c2)c(=O)[nH]c1=O [Compound 72, 6-Amino-2-(3,5-dichloro-4-((6-oxo-5-(5,6,7,8-tetrahydro-naphthalen-2-yl)-1,6-dihydro-pyridazin-3-yl)oxy)phenyl)-1,2,4-triazine-3,5(2H,4H)-dione]	< 50	> 10000	50 to 250	< 50	–	–
CC(C)c1c[nH]c2ccc(Oc3c(Cl)cc(-n4nc(C#N)c(=O)[nH]c4=O)cc3Cl)cc12 [Compound 1, 2-[3,5-dichloro-4-[(3-isopropyl-1H-indol-5-yl)oxy]-phenyl]-3,5-dioxo-4H-1,2,4-tri-azine-6-carbonitrile]	> 75	250 to 1000	< 50	50 to 75	–	–

Now from value to compound:

Emax [1] [%]	EC50 [1] [nM]	EC50 [2] [nM]	Emax [2] [%]	Activity category Assay 1 THRβ (Emax) [2]	Activity category Assay 2 THRα (Emax) [1]	SMILES
50 to 75	1000 to 10000	< 50	< 50	–	–	CC(C)Nc1n[nH]c2ccc(Oc3c(Cl)cc(-n4nc(C#N)c(=O)[nH]c4=O)cc3Cl)cc12 [Compound 145, 2-(3,5-dichloro-4-((3-(isopropylamino)-1H-indazol-5-yl)oxy)phenyl)-3,5-dioxo-2,3,4,5-tetrahydro-1,2,4-triazine-6-carbonitrile]
< 50	1000 to 10000	50 to 250	< 50	–	–	Nc1nn(-c2cc(Cl)c(Oc3cc(C4CC5(CCC5)C4)c(=O)[nH]n3)c(Cl)c2)c(=O)[nH]c1=O [Compound 94]
< 50	1000 to 10000	< 50	< 50	–	–	CC1(C)CC(c2cc(Oc3c(Cl)cc(-n4nc(N)c(=O)[nH]c4=O)cc3Cl)n[nH]c2=O)C1 [Compound 89, 6-Amino-2-(3,5-dichloro-4-((5-(3,3-dimethylcyclobutyl)-6-oxo-1,6-dihydropyridazin-3-yl)oxy)phenyl)-1,2,4-triazine-3,5(2H,4H)-dione]
50 to 75	250 to 1000	50 to 250	< 50	–	–	C[C@H]1C[C@H](c2cc(Oc3c(Cl)cc(-n4nc(N)c(=O)[nH]c4=O)cc3Cl)n[nH]c2=O)C1 (single isomer, unassigned) [Compound 86-A, 6-Amino-2-(3,5-dichloro-4-((5-((1r,3r)-3-methylcyclobutyl)-6-oxo-1,6-dihydropyridazin-3-yl)oxy)phenyl)-1,2,4-triazine-3,5(2H,4H)-dione]
< 50	50 to 250	< 50	< 50	–	–	CC(C)c1cc(=O)[nH]c2ccc(Oc3c(Cl)cc(-n4nc(N)c(=O)[nH]c4=O)cc3Cl)cc12 [Compound 146, 6-amino-2-[3,5-dichloro-4-[(4-isopropyl-2-oxo-1H-quinolin-6-yl)oxy]phenyl]-1,2,4-triazine-3,5-dione]
50 to 75	250 to 1000	< 50	–	C (Emax<50%)	–	CC(c1ccccc1)c1cc(Oc2c(Cl)cc(-n3nc(N)c(=O)[nH]c3=O)cc2Cl)n[nH]c1=O (single isomer, unassigned) [Compound 164, 6-Amino-2-(3,5-dichloro-4-((6-oxo-5-(1-phenylethyl)-1,6-dihydropyridazin-3-yl)oxy)phenyl)-1,2,4-triazine-3,5(2H,4H)-dione]
< 50	> 10000	50 to 250	< 50	–	–	Nc1nn(-c2cc(Cl)c(Oc3cc(-c4ccc5c(c4)CCCO5)c(=O)[nH]n3)c(Cl)c2)c(=O)[nH]c1=O [Compound 114]
< 50	1000 to 10000	50 to 250	< 50	–	–	Nc1nn(-c2cc(Cl)c(Oc3cc(C4CC5(CC5)C4)c(=O)[nH]n3)c(Cl)c2)c(=O)[nH]c1=O [Compound 93]
50 to 75	< 50	< 50	50 to 75	–	–	Cc1cc(-n2nc(N)c(=O)[nH]c2=O)cc(C)c1Cc1ccc2c(c1)C1(CC1)C(=O)N2 [Compound 151, 6-Amino-2-(3,5-dimethyl-4-((2′-oxospiro[cyclopropane-1,3′-indolin]-5′-yl)methyl)phenyl)-1,2,4-triazine-3,5(2H,4H)-dione]
50 to 75	50 to 250	< 50	> 75	–	–	Cc1cc(-n2nc(N)c(=O)[nH]c2=O)cc(C)c1Cc1cc2c(C(C)C)c[nH]c2cn1 [Compound 157, 6-amino-2-[4-[(3-isopropyl-1H-pyrrolo[2,3-c]pyridin-5-yl)methyl]-3,5-dimethyl-phenyl]-1,2,4-triazine-3,5-dione]
> 75	< 50	< 50	50 to 75	–	–	Nc1nn(-c2cc(Cl)c(Oc3ccc4c(c3)C3(CCCC3)C(=O)N4)c(Cl)c2)c(=O)[nH]c1=O [Compound 83]
